Results from PMC6304418, “A Novel Compound Targeting Protease Receptor 1 Activators for the Treatment of Glioblastoma” (Frontiers in Neurology, 2018).
Where a SMILES comes first, the peptide text is derived from it. The star is where a group is joined. Tos = Cc1ccc(S(=O)(=O)*)cc1; CH2Cl = ClC*

Legend:
glioma cells (CNS-1) = experiment: Wound healing (wound-closure) assay; format: cell-based, rat; conditions: SIXAC 1 μM, 4 h, FCS-free medium; control 10.14 ± 0.67%; p = 0.02
Method: The effect of SIXAC on the coordinated movement of the glioma cells was evaluated using a wound healing assay. The cells were seeded in 24-well plates at a density of 5 × 10^4cells/well. Cells were cultures in FCS-free medium for 24 h. A wound was established by scraping using 10 μl pipette tip. Cells were washed twice with warm PBS and fresh FCS-free medium containing 1 μM SIXAC was added. Image acquisition of wound gap closure (%) was carried out following 4 h of incubation using a Nikon Eclipse microscope. Images were analyzed using Fiji software ([37]).

[1] = SIXAC stability over time at 37°C, measured by its inhibition of thrombin; format: physicochemical; conditions: 400 μM SIXAC incubated and sampled, read-out inhibition of 0.05 U/ml thrombin
Method: Thrombin activity was assessed using a fluorogenic thrombin substrate (Bachem I-1560, excitation 360 nm; emission 465 nm). As previously described ([19], [36]), the reactions were carried out in a black 96-well microplate. All reactions were performed in Tris buffer (in mM: 150 NaCl, 1 CaCl2, 50 Tris-HCl: pH 8.0) and in the presence of endopeptidase inhibitors (0.1 mg/ml, bestatin hydrochloride—B8385, Sigma; 200 μM prolylendopeptidase inhibitor II, 537011, Merck Millipore) to eliminate the effect of widely abundant CNS endopeptidases on the assay. Known bovine thrombin concentrations (T-4648, Sigma) were used to create a calibration curve for each experiment. IC50 for inhibition of C6 glioma-generated thrombin activity by the molecules was measured in the medium secreted from the cells as described before ([19]). Briefly, C6 cells were seeded (5 × 10^4 cells/ml, 200 μl per well) and allowed to attach the well bottom for 24 h. […] The substrate was added and fluorescence was measured. […] Inhibition of commercial thrombin by SIXAC was measured by applying increasing concentrations of SIXAC (10^−12-10^−5M final concentration) to wells containing 0.05U/ml thrombin (final concentration). […] The sampled SIXAC was added to a constant concentration of thrombin (0.05 U/ml) and thrombin activity was measured. […] All other measures were calculated as a portion of the total activity.

[2] = test system: CNS-1 glioma in Lewis rats; experiment: In-vivo imaging study (MRI) in CNS-1 GBM rat model
Method: (§1) Adult Lewis rats (270–335 g, Harlan, Jerusalem, Israel) were housed in a standard conditions and fed a standard diet. Water was available ad libitum. Ambient temperature was set to 22°C to 23°C with day/night light control. The protocols of this study were approved by the Sheba Medical Center Committee on the Use and Care of Animals (permit No: 972/15) according to the ARRIVE Guidelines. Maximum efforts were made in order to minimize suffering and pain. The humane endpoints were the inability to rise or ambulate and a severe weight loss (20% of initial body weight).
(§2) The rats were anesthetized via IM injection of Ketamine-Xylazine (100 mg/kg, 16 mg/kg, respectively). A midline scalp incision was made, and a 1 mm burr hole was drilled (coordinates 1 mm lateral × 3 mm posterior to the Bregma). Tumor implantation was performed using a 30 gauge needle attached to a 25 μl syringe containing 10 μl of CNS-1 pellet 5 × 10^7cells/ml. The rats were positioned into a stereotactic frame in order to inject the cells at the right corpus striatum 5.5 mm deep in the brain tissue. […] The needle was gently pulled out 1 min after the pump was stopped. The burr hole was then sealed with bone wax and the skin was sutured.
MRI was performed using a clinical interventional 1.5T MR system. The rats were anesthetized and Gd-based contrast agent was injected IP (Gd-DOTA, 0.02 mmol/kg, Dotarem, Guerbert). MRI sequences included contrast enhanced T1-weighted MRI for depiction of the tumor, T2-weighted MRI for depiction of edema and gradient-echo MRI for depiction of possible hemorrhages. The first MRI scan was used to rank the tumors into three categories based on the size evaluation in order to form groups with a similar distribution of initial tumor size. Regions of interest (ROIs) were plotted over enhanced T1 and T2 weighted MR images. The volume of the tumors, calculated from the T1-weighted images, was then subtracted from the enhancing volume, calculated from the T2-weighted images, in order to determine the volume of surrounding edema.
The animals were implanted with osmotic pumps attached to brain infusion tube (Alzet, Cupertino, CA, USA). Implantation was performed 5 days after tumor inoculation. […]
Rats were allocated to three groups. […] 7 days following induction of treatment (day 12) a follow-up MRI imaging (2nd) was performed and the size of the tumor and edema surrounding the tumor were analyzed by standard ROI manual techniques as described above. In order to eliminate the effect of initial tumor and edema sizes variance, the tumor and edema sizes increase were calculated by using the ratio of the 2nd MRI scan divided by the 1st MRI scan ([41], [42]).

[3] = test system: CNS-1 inoculated Lewis rats; experiment: Survival study in CNS-1 GBM rat model; format: in vivo
Method: as §1, §2
The animals were implanted with osmotic pumps attached to brain infusion tube (Alzet, Cupertino, CA, USA). Implantation was performed 5 days after tumor inoculation. Two different types of osmotic pump were used: in the imaging study the pumps implanted released 1 μl/h for 7 days (model #2001), while in the survival study the pumps released 0.5 μl/h for 14 days (model #2002). The pumps were preloaded with either saline or SIXAC (in indicated concentrations). The pumps were primed in saline bath at 37°C for 24 h as a pre-implantation procedure and the function of each pump was reassured by assessing dripping. The Alzet pump was implanted subcutaneously, a catheter was placed intracranially thus releasing substances directly to the tumor core.
Rats were allocated to three groups. 1. Control group (n = 15) treated with alzet-pumps contain saline. 2. Moderate dose treated group (n = 16) treated with alzet-pump containing SIXAC (2μg/kg/day). 3. High dose treated group (n = 14) treated with alzet-pumps contain SIXAC (20μg/kg/day). Survival was registered daily and the brains were dissected immediately after death determination and were placed in 4% PFA and kept at 4°C. Upon MRI scanning the brains were moved to PBS containing tubes, scanning was performed and ROI were quantified.

Cc1ccc(S(=O)(=O)N[C@@H](C)C(=O)N[C@H](C(=O)N[C@@H](CC(C)C)C(=O)N[C@@H](CC(=O)O)C(=O)N2CCC[C@H]2C(=O)N[C@@H](CCCNC(=N)N)C(=O)CCl)[C@@H](C)O)cc1 [SIXAC] (Tos-ATLDPR-CH2Cl)
wound-closure percentage (glioma cells (CNS-1)): 7.27 ± 0.68%
stability: time for which SIXAC was stable and significantly inhibited thrombin [1]: ≥ 18 days
tumor enhancement means of ratios, moderate dose vs. low dose and saline (in words) ([2]; 2μg/kg/day vs. 0.2μg/kg/day and saline): non-significant reduction in tumor enhancement means of ratios
edema means of ratios, moderate dose vs. low dose and saline (in words) ([2]; 2μg/kg/day vs. 0.2μg/kg/day and saline, p < 0.05): Significant reduction in edema means of ratios
edema volume ratio (2nd/1st MRI, T2) ([2]; 2μg/kg/day, intracranial Alzet pump, 7 days, day 12/day 5, n = 9, control 8.8 ± 1.9, p < 0.04 (t-test)): 4.9 ± 1
tumor volume ratio (2nd/1st MRI, enhancing lesions, T1) ([2]; 2μg/kg/day, intracranial Alzet pump, 7 days, day 12/day 5, n = 9, control 12.2 ± 2.4, p = 0.16 (t-test)): 9.8 ± 1.2
survival, combined SIXAC groups relative to controls (in words) ([3]; 2μg/kg/day and 20μg/kg/day combined): robust effect of treatment
survival rate vs. saline, moderate dose (in words) ([3]; 2μg/kg/day, log-rank test, one tailed p = 0.01): significantly prolonged in comparison to the saline treated group
median survival, high dose ([3]; 20μg/kg/day, intracranial Alzet pump, 14 days, n = 14, control 16 days, log-rank one tailed p < 0.05): 17 days
survival rate vs. saline, high dose (in words) ([3]; 20μg/kg/day, log-rank test, one tailed p < 0.05): less pronounced effect for the high dose group
survival, trend over three groups (in words) ([3]; saline, 2μg/kg/day, 20μg/kg/day, log-rank test for trend p = 0.030): significant trend of prolonged survival
